Structures can show the parent of a compound that is named as a salt. Where two headings read alike, the source gives them in different places.
Legend:
Type in all cases: cell-based
P2Y1 receptor [1] = molecular target: T1, P2Y1 receptor (Rattus norvegicus, UniProt P49651); assay: agonist-induced intracellular calcium mobilization in RBL-2H3 cells
P2Y1 receptor [2] = molecular target: T1, P2Y1 receptor
P2Y13 receptor = molecular target: T2, P2Y13 receptor (Rattus norvegicus, UniProt Q6GUG4)
T2 sequence (Q6GUG4 1-336): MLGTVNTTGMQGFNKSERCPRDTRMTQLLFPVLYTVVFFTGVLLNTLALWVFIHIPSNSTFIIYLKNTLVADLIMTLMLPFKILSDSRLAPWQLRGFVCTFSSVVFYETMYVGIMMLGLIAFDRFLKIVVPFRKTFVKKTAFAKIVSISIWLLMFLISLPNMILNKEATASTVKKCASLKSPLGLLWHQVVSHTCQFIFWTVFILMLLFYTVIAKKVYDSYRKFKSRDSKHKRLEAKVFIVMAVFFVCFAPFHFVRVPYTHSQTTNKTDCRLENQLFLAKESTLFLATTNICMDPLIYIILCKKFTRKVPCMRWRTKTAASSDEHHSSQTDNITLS

P2Y1 receptor [3] = molecular target: T1, P2Y1 receptor; remark: listed apart in the source

T1 sequence (P49651 whole entry): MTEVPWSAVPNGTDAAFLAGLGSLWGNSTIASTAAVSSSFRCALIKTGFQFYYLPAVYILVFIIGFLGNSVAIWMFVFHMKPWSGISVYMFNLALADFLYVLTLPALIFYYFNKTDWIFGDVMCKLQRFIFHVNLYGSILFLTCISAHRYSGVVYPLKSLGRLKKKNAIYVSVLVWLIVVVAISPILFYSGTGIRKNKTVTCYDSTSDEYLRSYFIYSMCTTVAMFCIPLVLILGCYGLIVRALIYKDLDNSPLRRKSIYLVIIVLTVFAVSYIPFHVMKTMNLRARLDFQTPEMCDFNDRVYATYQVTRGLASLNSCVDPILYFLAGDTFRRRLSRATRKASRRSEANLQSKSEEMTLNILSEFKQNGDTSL

CSc1nc(N)c2ncn([C@@H]3O[C@H](COP(=O)(O)OP(=O)(O)O)[C@@H](O)[C@H]3O)c2n1 [2-MeSADP]
EC50 (P2Y1 receptor [1]): 37.8 ± 11.3 nM

Nc1ncnc2c1ncn2[C@@H]1O[C@H](COP(=O)(O)OP(=O)(O)O)[C@@H](O)[C@H]1O [ADP]
EC50 (P2Y1 receptor [2]): 278 ± 42 nM | EC50 (P2Y13 receptor): 4700 ± 800 nM

CSc1nc(N)c2ncn([C@H]3[C@H](O)[C@H](O)[C@]4(COP(=O)(O)OP(=O)(O)O)C[C@H]34)c2n1 [MRS2365, [[(1R,2R,3S,4R,5S)-4-[6-amino-2-(methylthio)-9H-purin-9-yl]-2,3-dihydroxybicyclo[3.1.0]hex-1-yl]methyl]diphosphoric acid mono ester trisodium salt]
EC50 (P2Y1 receptor [3]): 4.5 ± 0.8 nM

From article PMC2974784 (Pharmacological research : the official journal of the …, 2010)
